From patent US20250230193A1, “CYCLIC COMPOUND HAVING SELECTIVE KRAS INHIBITORY EFFECT ON HRAS AND NRAS” (CHUGAI SEIYAKU KABUSHIKI KAISHA, priority 2022, published 2025)
Where a SMILES comes first, the peptide text is derived from it. Bridges are numbered along the chain shown (N, C = ends). [ ]: non-standard residue; d: D form. The star is where a group is joined. hPhe(3-Cl-4-CF3) = N[C@@H](CCc1ccc(C(F)(F)F)c(Cl)c1)C(=O)O; NPrPhe(4-CF3) = CCCN[C@@H](Cc1ccc(C(F)(F)F)cc1)C(=O)O; NMeGly(cPent) = CN[C@H](C(=O)O)C1CCCC1; NMeD = CN[C@@H](CC(=O)O)C(=O)O; NMeL = CN[C@@H](CC(C)C)C(=O)O; Piperidide = C1CCN(*)CC1; Ac5c = NC1(C(=O)O)CCCC1; Sar = CNCC(=O)O

Columns and labels:
[1] = target: GDP-bound NRAS wild-type protein (Homo sapiens, UniProt P01111); assay: Binding to NRAS by surface plasmon resonance (SPR), Single Cycle Kinetics; settings: SPR
[2] = target: GDP-bound HRAS wild-type protein (Homo sapiens, UniProt P01112); assay: Binding to HRAS by surface plasmon resonance (SPR), Single Cycle Kinetics; settings: SPR
[3] = KD ratio, GDP-bound NRAS wild-type vs GDP-bound KRAS wild-type
[4] = KD ratio, GDP-bound HRAS wild-type vs GDP-bound KRAS wild-type

Chain of GDP-bound NRAS wild-type protein (P01111 whole entry): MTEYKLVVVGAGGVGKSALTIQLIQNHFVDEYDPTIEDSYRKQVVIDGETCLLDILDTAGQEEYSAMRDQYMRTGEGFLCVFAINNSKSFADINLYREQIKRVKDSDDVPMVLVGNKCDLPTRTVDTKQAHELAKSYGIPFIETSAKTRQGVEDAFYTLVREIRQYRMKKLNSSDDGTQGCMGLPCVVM
Chain of GDP-bound HRAS wild-type protein (P01112 whole entry): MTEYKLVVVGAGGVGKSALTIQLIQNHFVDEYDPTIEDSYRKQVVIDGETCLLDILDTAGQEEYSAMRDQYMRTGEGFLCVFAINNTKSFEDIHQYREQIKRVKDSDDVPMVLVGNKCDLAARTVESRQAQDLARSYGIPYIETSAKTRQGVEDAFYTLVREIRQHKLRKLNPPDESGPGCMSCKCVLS

Question: What does the source list for `CCCN(C)C(=O)[C@@H]1CC(=O)N(C)[C@@H](COCC)C(=O)N[C@@H]([C@@H](C)CC)C(=O)N(C)CC(=O)N(C)[C@H]2C/C=C\CCN(C2=O)[C@@H](Cc2ccc(C(F)(F)F)cc2)C(=O)N(C)CC(=O)N[C@@H](CCc2cc(F)c(C(F)(F)F)c(F)c2)C(=O)N2C[C@H](OCC)C[C@H]2C(=O)NC2(CC(C)(C)C2)C(=O)N(C)[C@@H](C2CCCC2)C(=O)N1C` [PP2031]?
Answer: NRAS/KRAS (ratio of KD value for NRAS to KD value for KRAS) [1, 3]: B (a compound having 3 or more and less than 10 is denoted as B); HRAS/KRAS (ratio of KD value for HRAS to KD value for KRAS) [2, 4]: B (a compound having 3 or more and less than 10 is denoted as B)

Question: How did the “NRAS/KRAS (ratio of KD value with respect to NRAS to KD value with respect to KRAS)” value [1, 3] turn out when `CCO[C@@H]1C[C@H]2C(=O)NC3(CCC3)C(=O)N(C)[C@@H](C(C)(C)C)C(=O)N(C)[C@H](C(=O)N3CCOCC3)CC(=O)N(C)[C@@H](CC(C)C)C(=O)N[C@@H]([C@@H](C)CC)C(=O)N(C)CC(=O)N(C)[C@H]3CCCCCN(C3=O)[C@@H](Cc3ccc(C(F)(F)F)cc3)C(=O)N(C)CC(=O)N[C@@H](CCc3cc(F)c(C(F)(F)F)c(F)c3)C(=O)N2C1` [PP0823] was run?
Answer: A (a compound having 10 or more and less than 20 is denoted as A)

Question: And the “HRAS/KRAS (ratio of KD value with respect to HRAS to KD value with respect to KRAS)” value [2, 4]?
Answer: B (a compound having 3 or more and less than 10 is denoted as B)

Question: Which results are given for `CCC[C@H]1C(=O)N[C@@H]([C@@H](C)CC)C(=O)N(C)CC(=O)N(C)[C@H]2C/C=C\CCN(C2=O)[C@@H](Cc2ccc(C)cc2)C(=O)N(C)CC(=O)N[C@@H](CCc2ccc(C(F)(F)F)c(OC)c2)C(=O)N2CC3(CC3)C[C@H]2C(=O)NC2(CC(C)(C)C2)C(=O)N(C)[C@@H](CC(C)C)C(=O)N(C)[C@H](C(=O)N(C)C)CC(=O)N1C` [PP3013]?
Answer: NRAS/KRAS (ratio of KD value with respect to GDP-bound NRAS wild-type protein to KD value with respect to KRAS) ([1]; KD ratio NRAS/KRAS, GDP-bound wild-type proteins): AA (a compound having 20 or more is denoted as AA); HRAS/KRAS (ratio of KD value with respect to GDP-bound HRAS wild-type protein to KD value with respect to KRAS) ([2]; KD ratio HRAS/KRAS, GDP-bound wild-type proteins): B (a compound having 3 or more and less than 10 is denoted as B)

Question: Which results are given for `CC[C@H](C)[C@@H]1NC(=O)[C@H](CC)N(C)C(=O)C[C@@H](C(=O)N(C)C)N(C)C(=O)[C@H](C2CCCC2)N(C)C(=O)C2(CCC2)NC(=O)[C@@H]2C[C@H](N3CCC(F)(F)CC3)CN2C(=O)[C@H](CCc2cc(F)c(C(F)(F)F)c(F)c2)NC(=O)CN(C)C(=O)[C@H](Cc2ccc(C(F)(F)F)cc2)N2CCCC[C@@H](C2=O)N(C)C(=O)CN(C)C1=O` [PP0732]?
Answer: NRAS/KRAS (ratio of KD value with respect to GDP-bound NRAS wild-type protein to KD value with respect to KRAS) ([1]; KD ratio NRAS/KRAS): C (A compound having a KD ratio of 0.1 or more and less than 3 is denoted as C); HRAS/KRAS (ratio of KD value with respect to GDP-bound HRAS wild-type protein to KD value with respect to KRAS) ([2]; KD ratio HRAS/KRAS): B (a compound having 3 or more and less than 10 is denoted as B)

Question: How did the “NRAS/KRAS (ratio of KD value with respect to NRAS to KD value with respect to KRAS)” value ([1]; GDP-bound NRAS wild-type vs GDP-bound KRAS wild-type) turn out when `CCCOC[C@H]1C(=O)N[C@@H]([C@@H](C)CC)C(=O)N(C)CC(=O)N(C)[C@H]2C/C=C\CCN(C2=O)[C@@H](CC2CCCCC2)C(=O)N(C)CC(=O)N[C@@H](CCc2cc(F)c(C(F)(F)F)c(F)c2)C(=O)N2C[C@H](OCC)C[C@H]2C(=O)NC2(CC(C)(C)C2)C(=O)N(C)[C@@H](C(CC)CC)C(=O)N(C)[C@H](C(=O)N(C)C)CC(=O)N1C` [PP2501] was run?
Answer: AA (a compound having 20 or more is denoted as AA)

Question: And the “HRAS/KRAS (ratio of KD value with respect to HRAS to KD value with respect to KRAS)” value ([2]; GDP-bound HRAS wild-type vs GDP-bound KRAS wild-type)?
Answer: A (a compound having 10 or more and less than 20 is denoted as A)

Question: What does the source list for `CCCN1C(=O)CN(C)C(=O)CN(C)C(=O)[C@H]([C@@H](C)CC)NC(=O)[C@H](CC(C)C)N(C)C(=O)C[C@@H](C(=O)N2CCCCC2)N(C)C(=O)[C@H](C2CCCC2)N(C)C(=O)C2(CCCC2)NC(=O)[C@@H]2CCCN2C(=O)[C@H](CCc2ccc(C(F)(F)F)c(Cl)c2)NC(=O)CN(C)C(=O)[C@@H]1Cc1ccc(C(F)(F)F)cc1` [PP0171] ([NMeL]I[Sar][Sar][NPrPhe(4-CF3)][Sar][hPhe(3-Cl-4-CF3)]P[Ac5c][NMeGly(cPent)][NMeD]-Piperidide; lactam N-11)?
Answer: NRAS/KRAS (ratio of KD for GDP-bound NRAS wild-type to KD for KRAS) ([1]; KD ratio NRAS/KRAS): B (a compound having 3 or more and less than 10 is denoted as B); HRAS/KRAS (ratio of KD for GDP-bound HRAS wild-type to KD for KRAS) ([2]; KD ratio HRAS/KRAS): C (A compound having a KD ratio of 0.1 or more and less than 3 is denoted as C)
